Reference: publication PMC10278063 (ACS Chemical Biology, 2023)
“And” between values parts separate entries of the source, which are not always exact repeats. Equal entries are not always repeated. No end group written: not given here. *: point of attachment. ClAc = O=C(CCl)*

The substances below were run on PSMD2.
Type: binding, human
In the case of “ClAc-FRRNVNWWRLYC (also: sidechain bridge or staple (positions not given here)) [hit 5]”, the “ELISA S/N” value is reported as greater than 30 and the “PSMD2 binding compared with MC3” value is reported as “equivalent or better binding”.
In the case of “ClAc-FSALRHIAIFRYC (also: sidechain bridge or staple (positions not given here)) [hit 2]”, the “ELISA S/N” value is reported as greater than 30 and the “PSMD2 binding compared with MC3” value is reported as “equivalent or better binding”.
For “ClAc-FSRNAGFWARYC (also: sidechain bridge or staple (positions not given here)) [hit 3]”, the “ELISA S/N” value was 49.0 and > 30 and the “PSMD2 binding compared with MC3” value was “equivalent or better binding”.
